Test results from patent publication US7192924B2, “Corticotropin releasing factor 2 receptor agonists” (priority 2002, dated 2007).
Read-outs that look alike come from different tables or passages of the source. Peptide text beside a SMILES is read from it.

Experiments:
CRF1R = target: T1, CRF1R (Homo sapiens, UniProt P34998); assay: CRF1R agonist activity (EC50, Emax), called comparative CRF binding; assay type: cell-based
T1 sequence (P34998 24-415): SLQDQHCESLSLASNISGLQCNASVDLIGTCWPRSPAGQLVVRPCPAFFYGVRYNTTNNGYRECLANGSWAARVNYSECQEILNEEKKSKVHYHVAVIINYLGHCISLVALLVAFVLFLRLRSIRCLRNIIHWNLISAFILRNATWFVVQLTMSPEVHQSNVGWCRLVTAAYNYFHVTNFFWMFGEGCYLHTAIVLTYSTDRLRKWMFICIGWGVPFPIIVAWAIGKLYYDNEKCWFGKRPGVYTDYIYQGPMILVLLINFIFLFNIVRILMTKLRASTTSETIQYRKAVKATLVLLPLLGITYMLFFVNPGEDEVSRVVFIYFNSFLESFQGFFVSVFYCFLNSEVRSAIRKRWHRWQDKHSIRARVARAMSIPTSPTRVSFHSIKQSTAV
How it was run: (§1)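 cAMP read-out: CRE-linked reporter (e.g. luciferase, CAT, GFP) or lysate cAMP in CRF1R- or CRF2R-expressing cells after peptide exposure; vehicle control comparison. Signal from any non-target CRFR subtracted.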

CRF2R = target: T2, CRF2R (Homo sapiens, UniProt Q13324); assay: CRF2R agonist activity (EC50, Emax), called comparative CRF binding; assay type: cell-based
T2 sequence (Q13324 1-411): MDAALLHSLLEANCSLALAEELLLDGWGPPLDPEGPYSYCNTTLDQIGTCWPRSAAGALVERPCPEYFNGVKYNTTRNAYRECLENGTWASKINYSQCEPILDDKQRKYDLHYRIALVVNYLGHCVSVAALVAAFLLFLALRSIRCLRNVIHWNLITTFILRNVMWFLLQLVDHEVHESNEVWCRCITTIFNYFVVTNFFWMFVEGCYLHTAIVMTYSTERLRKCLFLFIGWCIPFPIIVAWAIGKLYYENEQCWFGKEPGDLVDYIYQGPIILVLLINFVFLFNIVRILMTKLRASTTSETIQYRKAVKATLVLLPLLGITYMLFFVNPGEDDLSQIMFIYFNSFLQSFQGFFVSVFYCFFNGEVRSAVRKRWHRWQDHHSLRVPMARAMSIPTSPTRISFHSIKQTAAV
How it was run: as §1

Structure (SMILES)	EC50 (CRF1R; read-out: CRF1R EC50) [µM]	EC50 (CRF2R; read-out: CRF2R EC50) [µM]	EC50 (CRF1R) [µM]	EC50 (CRF2R) [µM]
CC[C@H](C)[C@H](N)C(=O)N[C@H](C(=O)N[C@@H](CC(C)C)C(=O)N[C@@H](CO)C(=O)N[C@@H](CC(C)C)C(=O)N[C@@H](CC(=O)O)C(=O)N[C@H](C(=O)N1CCC[C@H]1C(=O)N[C@H](C(=O)NCC(=O)N[C@@H](CC(C)C)C(=O)N[C@@H](CC(C)C)C(=O)N[C@@H](CCC(N)=O)C(=O)N[C@H](C(=O)N[C@@H](CC(C)C)C(=O)N[C@@H](CC(C)C)C(=O)N[C@@H](CCC(=O)O)C(=O)N[C@@H](CCC(N)=O)C(=O)N[C@@H](CCCNC(=N)N)C(=O)N[C@@H](C)C(=O)N[C@@H](CCCNC(=N)N)C(=O)N[C@@H](C)C(=O)N[C@@H](C)C(=O)N[C@@H](CCCNC(=N)N)C(=O)N[C@@H](CCC(=O)O)C(=O)N[C@@H](CCC(N)=O)C(=O)N[C@@H](C)C(=O)N[C@H](C(=O)N[C@H](C(=O)N[C@@H](CC(N)=O)C(=O)N[C@@H](C)C(=O)N[C@@H](CCCNC(=N)N)C(=O)N[C@H](C(=O)N[C@@H](CC(C)C)C(=O)N[C@@H](C)C(=O)N[C@@H](CCCNC(=N)N)C(=O)N[C@H](C(N)=O)C(C)C)[C@@H](C)CC)[C@@H](C)O)[C@@H](C)O)[C@@H](C)CC)[C@@H](C)CC)C(C)C)C(C)C [compound 137] (H-IVLSLDVPIGLLQILLEQRARAAREQATTNARILARV-NH2; N-terminus assumed)	> 0.1	0.0369		
CC[C@H](C)[C@H](N)C(=O)N[C@H](C(=O)N[C@@H](CC(C)C)C(=O)N[C@@H](CO)C(=O)N[C@@H](CC(C)C)C(=O)N[C@@H](CC(=O)O)C(=O)N[C@H](C(=O)N1CCC[C@H]1C(=O)N[C@H](C(=O)NCC(=O)N[C@@H](CC(C)C)C(=O)N[C@@H](CC(C)C)C(=O)N[C@@H](CCC(N)=O)C(=O)N[C@H](C(=O)N[C@@H](CC(C)C)C(=O)N[C@H](C(=O)N[C@@H](CCC(=O)O)C(=O)N[C@H](C(=O)N[C@@H](CCC(=O)O)C(=O)N[C@@H](CCCCN)C(=O)N[C@@H](CCC(N)=O)C(=O)N[C@@H](CCC(=O)O)C(=O)N[C@@H](CCCCN)C(=O)N[C@@H](CCC(=O)O)C(=O)N[C@@H](CCCCN)C(=O)N[C@@H](CCC(N)=O)C(=O)N[C@@H](CCC(N)=O)C(=O)N[C@@H](C)C(=O)N[C@@H](C)C(=O)N[C@@H](CC(N)=O)C(=O)N[C@@H](CC(N)=O)C(=O)N[C@@H](CCCNC(=N)N)C(=O)N[C@@H](CC(C)C)C(=O)N[C@@H](CC(C)C)C(=O)N[C@@H](CC(C)C)C(=O)N[C@@H](CC(=O)O)C(=O)N[C@H](C(=O)N[C@H](C(N)=O)[C@@H](C)CC)[C@@H](C)O)[C@@H](C)CC)[C@@H](C)CC)[C@@H](C)CC)[C@@H](C)CC)C(C)C)C(C)C [compound 154] (H-IVLSLDVPIGLLQILIEIEKQEKEKQQAANNRLLLDTI-NH2; N-terminus assumed)			> 0.1	0.0103
CC[C@H](C)[C@H](N)C(=O)N[C@H](C(=O)N[C@@H](CC(C)C)C(=O)N[C@@H](CO)C(=O)N[C@@H](CC(C)C)C(=O)N[C@@H](CC(=O)O)C(=O)N[C@H](C(=O)N1CCC[C@H]1C(=O)N[C@H](C(=O)NCC(=O)N[C@@H](CC(C)C)C(=O)N[C@@H](CC(C)C)C(=O)N[C@@H](CCC(N)=O)C(=O)N[C@H](C(=O)N[C@@H](CC(C)C)C(=O)N[C@@H](CC(C)C)C(=O)N[C@@H](CCC(=O)O)C(=O)N[C@@H](CCSC)C(=O)N[C@H](C(=O)N[C@@H](CCCCN)C(=O)N[C@@H](C)C(=O)N[C@@H](CC(=O)O)C(=O)N[C@@H](CCC(N)=O)C(=O)N[C@@H](CC(C)C)C(=O)N[C@@H](C)C(=O)N[C@@H](CCC(N)=O)C(=O)N[C@@H](CCC(N)=O)C(=O)N[C@@H](C)C(=O)N[C@@H](Cc1c[nH]cn1)C(=O)N[C@@H](CO)C(=O)N[C@@H](CC(N)=O)C(=O)N[C@@H](CCCNC(=N)N)C(=O)N[C@@H](CCCCN)C(=O)N[C@@H](CC(C)C)C(=O)N[C@@H](CC(C)C)C(=O)N[C@@H](CC(=O)O)C(=O)N[C@H](C(=O)N[C@@H](C)C(N)=O)[C@@H](C)CC)[C@@H](C)O)[C@@H](C)CC)[C@@H](C)CC)C(C)C)C(C)C [compound 155] (H-IVLSLDVPIGLLQILLEMTKADQLAQQAHSNRKLLDIA-NH2; N-terminus assumed)	0.0406	0.0206		
CC[C@H](C)[C@H](N)C(=O)N[C@H](C(=O)N[C@@H](CC(C)C)C(=O)N[C@@H](CO)C(=O)N[C@@H](CC(C)C)C(=O)N[C@@H](CC(=O)O)C(=O)N[C@H](C(=O)N1CCC[C@H]1C(=O)N[C@H](C(=O)NCC(=O)N[C@@H](CC(C)C)C(=O)N[C@@H](CC(C)C)C(=O)N[C@@H](CCC(N)=O)C(=O)N[C@H](C(=O)N[C@@H](CC(C)C)C(=O)N[C@@H](CC(C)C)C(=O)N[C@@H](CCC(=O)O)C(=O)N[C@@H](CCC(N)=O)C(=O)N[C@H](C(=O)N[C@@H](CCCCN)C(=O)N[C@@H](C)C(=O)N[C@@H](CC(=O)O)C(=O)N[C@@H](CCC(N)=O)C(=O)N[C@@H](CC(C)C)C(=O)N[C@@H](C)C(=O)N[C@@H](CCC(N)=O)C(=O)N[C@@H](CCC(N)=O)C(=O)N[C@@H](C)C(=O)N[C@@H](Cc1c[nH]cn1)C(=O)N[C@@H](CO)C(=O)N[C@@H](CC(N)=O)C(=O)N[C@@H](CCCNC(=N)N)C(=O)N[C@@H](CCCCN)C(=O)N[C@@H](CC(C)C)C(=O)N[C@@H](CC(C)C)C(=O)N[C@@H](CC(=O)O)C(=O)N[C@H](C(=O)N[C@@H](C)C(N)=O)[C@@H](C)CC)[C@@H](C)O)[C@@H](C)CC)[C@@H](C)CC)C(C)C)C(C)C [compound 159] (H-IVLSLDVPIGLLQILLEQTKADQLAQQAHSNRKLLDIA-NH2; N-terminus assumed)	> 0.1	0.0908		
CC[C@H](C)[C@H](N)C(=O)N[C@H](C(=O)N[C@@H](CC(C)C)C(=O)N[C@@H](CO)C(=O)N[C@@H](CC(C)C)C(=O)N[C@@H](CC(=O)O)C(=O)N[C@H](C(=O)N1CCC[C@H]1C(=O)N[C@H](C(=O)NCC(=O)N[C@@H](CC(C)C)C(=O)N[C@@H](CC(C)C)C(=O)N[C@@H](CCC(N)=O)C(=O)N[C@H](C(=O)N[C@@H](CC(C)C)C(=O)N[C@@H](CC(C)C)C(=O)N[C@@H](CCC(=O)O)C(=O)N[C@@H](CC(C)C)C(=O)N[C@@H](C)C(=O)N[C@@H](CCCNC(=N)N)C(=O)N[C@H](C(=O)N[C@@H](CCC(N)=O)C(=O)N[C@@H](CO)C(=O)N[C@@H](CCC(N)=O)C(=O)N[C@@H](CCCNC(=N)N)C(=O)N[C@@H](CCC(=O)O)C(=O)N[C@@H](CCCNC(=N)N)C(=O)N[C@@H](C)C(=O)N[C@@H](CCC(=O)O)C(=O)N[C@@H](CCC(N)=O)C(=O)N[C@@H](CC(N)=O)C(=O)N[C@@H](CCCNC(=N)N)C(=O)N[C@H](C(=O)N[C@H](C(=O)N[C@@H](Cc1ccccc1)C(=O)N[C@@H](CC(=O)O)C(=O)N[C@@H](CO)C(=O)N[C@H](C(N)=O)C(C)C)[C@@H](C)CC)[C@@H](C)CC)[C@@H](C)O)[C@@H](C)O)[C@@H](C)CC)C(C)C)C(C)C [compound 160] (H-IVLSLDVPIGLLQTLLELARTQSQRERAEQNRIIFDSV-NH2; N-terminus assumed)	> 0.1	0.00915		
CC[C@H](C)[C@H](N)C(=O)N[C@H](C(=O)N[C@@H](CC(C)C)C(=O)N[C@@H](CO)C(=O)N[C@@H](CC(C)C)C(=O)N[C@@H](CC(=O)O)C(=O)N[C@H](C(=O)N1CCC[C@H]1C(=O)N[C@H](C(=O)NCC(=O)N[C@@H](CC(C)C)C(=O)N[C@@H](CC(C)C)C(=O)N[C@@H](CCC(N)=O)C(=O)N[C@H](C(=O)N[C@@H](CC(C)C)C(=O)N[C@@H](CC(C)C)C(=O)N[C@@H](CCC(=O)O)C(=O)N[C@@H](CCSC)C(=O)N[C@@H](C)C(=O)N[C@@H](CCCNC(=N)N)C(=O)N[C@@H](C)C(=O)N[C@@H](CCC(=O)O)C(=O)N[C@@H](CCC(N)=O)C(=O)N[C@@H](CC(C)C)C(=O)N[C@@H](C)C(=O)N[C@@H](CCC(N)=O)C(=O)N[C@@H](CCC(N)=O)C(=O)N[C@@H](C)C(=O)N[C@@H](Cc1c[nH]cn1)C(=O)N[C@@H](CO)C(=O)N[C@@H](CC(N)=O)C(=O)N[C@@H](CCCNC(=N)N)C(=O)N[C@@H](CCCCN)C(=O)N[C@@H](CC(C)C)C(=O)N[C@@H](CCSC)C(=O)N[C@@H](CCC(=O)O)C(=O)N[C@H](C(=O)N[C@H](C(N)=O)[C@@H](C)CC)[C@@H](C)CC)[C@@H](C)CC)[C@@H](C)CC)C(C)C)C(C)C [compound 164] (H-IVLSLDVPIGLLQILLEMARAEQLAQQAHSNRKLMEII-NH2; N-terminus assumed)	> 0.1	0.00224		
